Measurements as given in ChEMBL document CHEMBL1126208, “Synthesis and antileukemic activity of etoposide a-ring analogs” (Bioorg Med Chem Lett, 1992).
≈ marks a conversion by molar mass, not a printed value.

Assays:
HCT-116 [1] = test: Compound was tested for its in vitro cytotoxicity in HCT-VP35 cell line after 72 hours; assay type: functional, cell-based; details: Homo sapiens, HCT-116, 72 h
Mus musculus [2] = test: Anti-P388 Leukemia activity after 70 mg/kg/injection ip administration on days 5 and 8 expressed as percent of median survival time of drug treated mice compared to saline treated controls.; assay type: functional; details: route intraperitoneal
Mus musculus [3] = test: Anti-P388 Leukemia activity after 280 mg/kg/injection ip administration on days 5 and 8 expressed as percent of median survival time of drug treated mice compared to saline treated controls.; assay type: functional; details: route intraperitoneal
[4] = Ratio of IC50 of HCT-VP35 to IC50 of HCT116.; assay type: functional
Mus musculus [5] = test: Anti-P388 Leukemia activity after 140 mg/kg/injection ip administration on days 5 and 8 expressed as percent of median survival time of drug treated mice compared to saline treated controls.; assay type: functional; details: route intraperitoneal
HCT-116 [6] = test: Compound was tested for its in vitro cytotoxicity in HCT116 cell line after 72 hours; assay type: functional, cell-based; details: Homo sapiens, HCT-116, 72 h
Mus musculus [7] = test: Anti-P388 Leukemia activity determined when compound 150 mg/kg was administered ip on day 51 on mice expressed as the Long -term survivors (LTS); mice alive/total; total no of mice =6; assay type: functional; details: route intraperitoneal
Mus musculus [8] = test: Anti-P388 Leukemia activity determined when compound 150 mg/kg was administered ip on day 48 on mice expressed as the Long -term survivors (LTS); mice alive/total; No of mice tested=6; assay type: functional; details: route intraperitoneal
Mus musculus [9] = test: Anti-P388 Leukemia activity determined when compound 150 mg/kg was administered ip on day 48 on mice expressed as the Long -term survivors (LTS); mice alive/total No of mice tested=6; assay type: functional; details: route intraperitoneal
Mus musculus [10] = test: Anti-P388 Leukemia activity determined when compound 120 mg/kg was administered ip on day 53 on mice expressed as the Long -term survivors (LTS); mice alive/total No of mice tested=6; assay type: functional; details: route intraperitoneal
Mus musculus [11] = test: Anti-P388 Leukemia activity determined when compound 120 mg/kg was administered ip on day 26 on mice expressed as the Long -term survivors (LTS); mice alive/total No of mice tested=6; assay type: functional; details: route intraperitoneal
Mus musculus [12] = test: Anti-P388 Leukemia activity determined when compound 150 mg/kg was administered ip on day 51 on mice expressed as the Long -term survivors (LTS); mice alive/total; assay type: functional; details: route intraperitoneal
[13] = Ratio of IC50 of HCT-VP35 to IC50 of HCT116; assay type: functional

| Structure (SMILES) | IC50 (HCT-116 [1]) [µg/mL] | T/C (Mus musculus [2]) | T/C (Mus musculus [3]) | Ratio [4] | T/C (Mus musculus [5]) | IC50 (HCT-116 [6]) [µg/mL] | LTS (Mus musculus [7]) | LTS (Mus musculus [8]) | LTS (Mus musculus [9]) | LTS (Mus musculus [10]) | LTS (Mus musculus [11]) | LTS (Mus musculus [12]) | Ratio [13] |
| --- | --- | --- | --- | --- | --- | --- | --- | --- | --- | --- | --- | --- | --- |
| COc1cc2c(cc1OC)[C@@H](O[C@@H]1O[C@@H]3CO[C@@H](C)O[C@H]3[C@H](O)[C@H]1O)[C@H]1COC(=O)[C@@H]1[C@@H]2c1cc(OC)c(O)c(OC)c1 | 10.3 (≈ 17.1 µM) | 189 | 228 | 6.4 | 189 | 1.61 (≈ 2.66 µM) | 4 | – | – | – | – | – | – |
| COc1cc([C@@H]2c3cc4c(cc3[C@@H](O[C@@H]3O[C@@H]5CO[C@@H](C)O[C@H]5[C@H](O)[C@H]3O)[C@H]3COC(=O)[C@H]23)OCO4)cc(OC)c1O [ETOPOSIDE] | 1.78 (≈ 3.02 µM) | – | – | 5.2 | – | 0.34 (≈ 0.578 µM) | – | – | – | – | – | – | – |
| COc1cc([C@@H]2c3cc(O)c(O)cc3[C@@H](O[C@@H]3O[C@@H]4CO[C@@H](C)O[C@H]4[C@H](OC(=O)OCC(Cl)(Cl)Cl)[C@H]3OC(=O)OCC(Cl)(Cl)Cl)[C@H]3COC(=O)[C@H]23)cc(OC)c1OC(=O)OCC(Cl)(Cl)Cl | 8.95 (≈ 8.12 µM) | 100 | 105 | 0.87 | 100 | 10.2 (≈ 9.27 µM) | – | 5 | – | – | – | – | – |
| CCCCCCCC(=O)Oc1cc2c(cc1OC(=O)CCCCCCC)[C@@H](O[C@@H]1O[C@@H]3CO[C@@H](C)O[C@H]3[C@H](O)[C@H]1O)[C@H]1COC(=O)[C@@H]1[C@@H]2c1cc(OC)c(O)c(OC)c1 | 21.7 (≈ 26.1 µM) | 120 | 135 | 2.7 | 125 | 8.03 (≈ 9.69 µM) | – | – | 5 | – | – | – | – |
| COc1cc([C@@H]2c3cc(O)c(O)cc3[C@@H](O[C@@H]3O[C@@H]4CO[C@@H](C)O[C@H]4[C@H](O)[C@H]3O)[C@H]3COC(=O)[C@H]23)cc(OC)c1O | > 15.6 | 125 | 165 | – | 130 | > 15.6 | – | – | – | 2 | – | – | – |
| COc1cc([C@@H]2c3cc4oc(=S)oc4cc3[C@@H](O[C@@H]3O[C@@H]4CO[C@@H](C)O[C@H]4[C@H](O)[C@H]3O)[C@H]3COC(=O)[C@H]23)cc(OC)c1O | > 15.6 | 130 | 170 | – | 155 | > 15.6 | – | – | – | – | 6 | – | – |
| COc1cc([C@@H]2c3cc(OC(C)=O)c(OC(C)=O)cc3[C@@H](O[C@@H]3O[C@@H]4CO[C@@H](C)O[C@H]4[C@H](O)[C@H]3O)[C@H]3COC(=O)[C@H]23)cc(OC)c1O | 27.1 (≈ 41 µM) | 144 | 194 | – | 167 | 19.6 (≈ 29.6 µM) | – | – | – | – | – | 4 | 1.4 |
| COc1cc([C@@H]2c3cc(OC(=O)OCc4ccccc4)c(OC(=O)OCc4ccccc4)cc3[C@@H](O[C@@H]3O[C@@H]4CO[C@@H](C)O[C@H]4[C@H](O)[C@H]3O)[C@H]3COC(=O)[C@H]23)cc(OC)c1O | 11.8 (≈ 14 µM) | – | – | 2 | – | 5.8 (≈ 6.87 µM) | – | – | – | – | – | – | – |
